Experimental data reported in patent publication US5179090A, “Condensed diazepinones and medicaments containing these compounds” (priority 1989, dated 1993).

Legend:
saliva secretion = experiment: Saliva secretion-inhibiting effect in the rat (pilocarpine-triggered); type: in vivo; settings: iv, pilocarpine 2 mg/kg subcutaneous, 50% reduction of saliva volume, read-out: -log ED50 saliva secretion inhibition rat (converted)
Experimental: (§1) The methods used had the aim of confirming the selectivity of the anti-muscarine effect. Any substances which had been selected on the basis of "in vitro" investigations were investigated for
2. saliva secretion-inhibiting effect in the rat, and
2. Saliva secretion-inhibitino effect in the rat
The secretion of saliva was triggered by subcutaneous administration of 2 mg/kg of pilocarpine. The saliva was absorbed using blotting paper, the surface taken up by it was determined planimetrically every 5 minutes. The dosage of the substance which reduced the volume of saliva by 50% was determined graphically.

[1] = target: T1, M receptors of the bronchial tubes (Cavia porcellus, UniProt H0W1Z3); experiment: Acetylcholine antagonism in anaesthetised guinea pigs: inhibition of bronchoconstriction; type: in vivo, guinea pig; settings: iv, 5 min; guinea pig, i.v., acetylcholine antagonism, n=4-6; read-out: -log ED50 bronchial tubes (converted)
T1 construct: Guinea pigs of both sexes (550-600 g body weight) were anaesthetised using urethane; from tissue; host or cells: bronchi of anaesthetised guinea pigs (in vivo)
T1 sequence (H0W1Z3 1-590): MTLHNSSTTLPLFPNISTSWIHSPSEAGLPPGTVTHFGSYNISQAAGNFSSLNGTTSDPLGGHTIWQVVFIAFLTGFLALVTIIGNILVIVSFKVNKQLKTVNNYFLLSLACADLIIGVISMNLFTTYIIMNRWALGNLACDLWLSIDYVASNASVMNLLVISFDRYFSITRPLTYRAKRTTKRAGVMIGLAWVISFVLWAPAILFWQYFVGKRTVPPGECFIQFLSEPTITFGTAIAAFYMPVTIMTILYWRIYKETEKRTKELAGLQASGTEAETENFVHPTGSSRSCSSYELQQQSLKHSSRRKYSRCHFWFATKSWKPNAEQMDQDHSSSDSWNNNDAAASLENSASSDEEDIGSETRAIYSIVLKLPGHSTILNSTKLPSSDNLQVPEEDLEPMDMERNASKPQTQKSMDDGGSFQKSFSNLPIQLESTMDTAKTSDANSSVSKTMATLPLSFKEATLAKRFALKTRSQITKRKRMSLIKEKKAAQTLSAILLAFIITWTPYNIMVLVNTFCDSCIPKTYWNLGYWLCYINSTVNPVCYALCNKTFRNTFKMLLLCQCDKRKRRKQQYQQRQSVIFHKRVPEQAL
Text: as §1
(§2) 1. selectivity of the bronchospasmolytic activity in the guinea pig,
(§3) 1. Effect on M receptors of the bronchial tubes, the heart and the bladder of anaesthetised guinea pigs
(§4) Guinea pigs of both sexes (550-600 g body weight) were anaesthetised using urethane (1.4 g/kg intraperitoneally). A cannula was introduced into the augular vein to inject the active agents. 220 I.U./kg of heparin were injected intravenously. A cannula was introduced into the trachea; the animals were artificially respirated by means of a positive pressure pump (Braun-Melsungen) using oxygen-enriched air at a rate of 80 beats per minute. A branch of the tracheal cannula was connected to a water manometer 10 cm high. The respiration volume was set such that the maximum intratracheal pressure just reached the pressure of a 10 cm water column during respiration.
(§5) The values were recorded using an IFD recording apparatus. The trachea was clamped for a short time before the test to produce the maximum possible degree of bronchoconstriction for calibration. […] The heart rate was measured using a rate detector which is triggered by arterial pulse waves.
(§6) The active substances to be tested were injected via the jugular vein, 5 minutes later the increase in tone of the bladder (in grams) the bronchial resistance (in %) and the decrease in heart rate (beats per minute) were measured after administration of acetylcholine (50 μg/kg intravenously and intraarterially). Dosage-dependency graphs were drawn by plotting the percentage inhibition of bronchoconstriction, bradycardia and the increase in tone of the bladder against the logarithm of the dosage (mole/kg) of the active agents to be investigated. The results are given as average values (n=4-6).

[2] = test system: M receptors of the bronchial tubes; experiment: as above; type: in vivo, guinea pig; settings: for Ratio influence of bradycardia to bronchoconstriction: guinea pig, i.v., ratio heart (bradycardia) to bronchial tubes; for selectivity for smooth muscle: smooth muscle vs heart rate or saliva secretion
Text: as §1, §2, §3, §4, §5, §6

[3] = target: T2, muscarine receptors of the vestibule (Cavia porcellus, UniProt H0VRN8); experiment: In vitro dissociation constant on spontaneously beating vestibule (heart), methacholine antagonism; type: cell-based; settings: guinea pig spontaneously beating vestibule
T2 construct: in the removed, spontaneously beating right vestibule; from tissue; host or cells: isolated spontaneously beating right atrium ('vestibule') of guinea pig
T2 sequence (H0VRN8 1-466): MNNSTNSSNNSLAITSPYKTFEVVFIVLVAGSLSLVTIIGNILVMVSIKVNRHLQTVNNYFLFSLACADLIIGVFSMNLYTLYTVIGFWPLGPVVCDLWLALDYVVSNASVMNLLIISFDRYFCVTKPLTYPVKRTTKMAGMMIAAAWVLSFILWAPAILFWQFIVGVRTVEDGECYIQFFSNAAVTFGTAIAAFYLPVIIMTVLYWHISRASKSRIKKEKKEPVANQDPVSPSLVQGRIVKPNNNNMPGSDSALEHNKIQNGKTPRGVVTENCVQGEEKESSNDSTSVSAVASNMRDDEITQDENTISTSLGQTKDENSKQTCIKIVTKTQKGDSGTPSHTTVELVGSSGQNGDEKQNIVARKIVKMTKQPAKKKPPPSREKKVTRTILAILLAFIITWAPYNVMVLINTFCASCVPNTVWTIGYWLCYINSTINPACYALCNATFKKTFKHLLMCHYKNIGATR
Experimental: (§7) Substances having anti-muscarine properties inhibit the effects of exogenically introduced agonists or of acetylcholine which is released from cholinergic nerve endings. A description of methods which are suitable for determining spasmolytically active anti-muscarine agents is given below.
(§8) Dissociation constants ([…]) were determined "in vitro" on the ileum and spontaneously beating vestibule of a guinea pig. The ileum was removed and incubated in an organ bath in Krebs- Henseleit solution. Contractions were induced by increasing concentrations of methacholine (M) such that complete concentration-activity graphs could be plotted. M was then washed out, the substance to be investigated was added and incubated for 30 minutes, and once again a concentration-activity graph was plotted using M.
The dissociation constant according to Arunlakshana and Schild (Brit. J. Pharmacol. 14; 48 (1959)) Was calculated from the dosage ratio (DR) which is the measure of the displacement of the concentration-activity graph.
M reduced the heart rate as a function of concentration in the removed, spontaneously beating right vestibule. This effect was cancelled again by adding an anti-muscarine agent. Dissociation constants for the muscarine receptors of the vestibule were obtained in the same manner as described above. The comparison of the dissociation constants determined in both tissues permitted the identification of selectively spasmolytically active substances.

[4] = target: T3, muscarine receptors in the ileum (Cavia porcellus, UniProt H0W1Z3); experiment: In vitro dissociation constant on ileum, methacholine antagonism; type: cell-based, guinea pig; settings: guinea pig ileum
T3 construct: The ileum was removed and incubated in an organ bath; from tissue; host or cells: isolated ileum of guinea pig
T3 sequence (H0W1Z3 1-590): as the sequence (H0W1Z3 1-590) above
Experimental: as §7, §8
(§9) Dissociation constants for the muscarine receptors of the vestibule were obtained in the same manner as described above.

[5] = test system: muscarine receptors in the ileum; experiment: as above; type: cell-based, guinea pig; settings: guinea pig
Experimental: as §7, §8, §9

guinea pig ileum = experiment: In situ spasmolytic effect in guinea pigs (methacholine-induced ileum contractions); type: in vivo; settings: i.v.; for ED50: Cavia porcellus, iv, 5 min, guinea pig, methacholine 20 μg/kg intraarterially, n=4 to 8, read-out: -log ED50 in situ spasmolysis guinea pig ileum (converted); for Ratio saliva secretion inhibition to spasmolytic activity: rat saliva secretion vs guinea pig ileum in situ
Text: as §1
3. in situ spasmolytic activity in the guinea pig.
3 In situ spasmolytic effect in guinea pigs
Male guinea pigs (500 to 600 g body weight) were anaesthetised using urethane (1.2 g/kg intraperitoneally);cannulae Were introduced into the trachea, jugular vein and the left carotid artery. The animals were artificially respirated by means of a positive pressure pump using oxygen-enriched air at a beat frequency of 80 per minute. A 3 to 4 cm abdominal incision was made and about 15 cm of a movable loop of the ileum was removed distally while maintaining the blood circulation. The proximal part was filled with a Krebs-Ringer solution and a pressure meter was introduced into the intestine using a Millar micro-tip catheter (PC-450, 5F). A glass tube was placed vertically in the abdomen and attached to the surrounding abdominal wall such that the animal served as its own organ bath when the glass tube was filled with Krebs-Ringer solution.
The glass tube was filled with Krebs-Ringer solution until the whole of the hypogastrium was immersed. The active agents to be tested were injected via the jugular vein; 5 minutes later contractions were produced by means of methacholine (20 μg/kg intraarterially). Dosage-activity graphs were obtained by plotting the percentage suppression of contractions produced by methacholine against the logarithm of dosage amount (mole/kg) of the active substance to be tested.
The results were given as average values (n=4 to 8) (see Table II).

M receptors of the heart [6] = target: T4, M receptors of the heart (Cavia porcellus, UniProt H0VRN8); experiment: Acetylcholine antagonism in anaesthetised guinea pigs: inhibition of bradycardia; type: in vivo, guinea pig; settings: iv, 5 min; guinea pig, i.v., acetylcholine antagonism (bradycardia), n=4-6; read-out: -log ED50 heart (converted)
T4 construct: from tissue; host or cells: heart of anaesthetised guinea pigs (in vivo)
T4 sequence (H0VRN8 1-466): T2 sequence (H0VRN8 1-466)
Text: as §1, §3, §4, §5, §6

[7] = target: T5, M receptors of the bladder (Cavia porcellus, UniProt H0W1Z3); experiment: Acetylcholine antagonism in anaesthetised guinea pigs: inhibition of increase in tone of the bladder; type: in vivo; settings: iv, 5 min, guinea pig, i.v., n=4-6, read-out: -log ED50 bladder (converted)
T5 construct: the bladder was connected to a power transducer under a resting tension of 1 gram; from tissue; host or cells: urinary bladder of anaesthetised guinea pigs (in vivo)
T5 sequence (H0W1Z3 1-590): as the sequence (H0W1Z3 1-590) above
Text: as §1, §3, §4
A small median abdominal incision was made and the bladder was connected to a power transducer under a resting tension of 1 gram.
as §6

M receptors of the heart [8] = experiment: Acetylcholine antagonism in anaesthetised guinea pigs: inhibition of bradycardia; type: in vivo, guinea pig; settings: comparison, Tables I and III
Text: as §1, §3, §4, §5, §6

Row | ED50 [1] [µmol/kg] | Kb [3] [nM] | Kb [4] [nM] | ED50 [7] [µmol/kg] | SMILES | ED50 (saliva secretion) [µmol/kg] | Ratio influence of bradycardia to bronchoconstriction [2] | selectivity for smooth muscle [2] | Selectivity KB heart to KB ileum [5] | ED50 (guinea pig ileum) [µmol/kg] | Ratio saliva secretion inhibition to spasmolytic activity (guinea pig ileum) | ED50 (M receptors of the heart [6]) [µmol/kg] | effectiveness on cardiac muscarine receptors (M receptors of the heart [8])
1 | 0.049 | 209 | 30.2 | 0.49 | CN1CCC2C1CCN2C(=O)N1c2ccccc2C(=O)Nc2cccnc21 (centres unmarked) [A] | 0.2 | 21 | very marked smooth muscle selectivity | 6.9 | 0.117 | 2 | 1.05 | –
2 | 0.0447 | 145 | 60.3 | 0.813 | CN1CCC2C1CCN2C(=O)N1c2ccccc2NC(=O)c2cccnc21 (centres unmarked) [B] | – | 44 | very marked smooth muscle selectivity | 2.4 | – | – | 1.95 | –
3 | 0.631 | – | – | 3.02 | CN1CC2CN(C(=O)N3c4ccccc4C(=O)Nc4cccnc43)CC2C1 (centres unmarked) [C] | 2.95 | 8 | – | – | 0.708 | 4 | 4.79 | –
4 | 0.0891 | – | – | 1.58 | Cc1scc2c1N(C(=O)N1CC3CN(C)CC3C1)c1ccccc1NC2=O (centres unmarked) [D] | – | 8 | – | – | – | – | 0.741 | –
5 | 2.63 | 105 | 617 | 11.7 | CN(C)CC1CCCCN1CC(=O)N1c2ccccc2C(=O)Nc2cccnc21 (centres unmarked) [X] | – | 0.5 | – | 0.17 | – | – | 1.45 | higher effectiveness on cardiac muscarine receptors

Row | SMILES | ED50 [1] [µmol/kg] | Kb [3] [nM] | Kb [4] [nM] | ED50 [7] [µmol/kg] | ED50 (saliva secretion) [µmol/kg] | Ratio influence of bradycardia to bronchoconstriction [2] | selectivity for smooth muscle [2] | Selectivity KB heart to KB ileum [5] | ED50 (guinea pig ileum) [µmol/kg] | Ratio saliva secretion inhibition to spasmolytic activity (guinea pig ileum) | ED50 (M receptors of the heart [6]) [µmol/kg] | effectiveness on cardiac muscarine receptors (M receptors of the heart [8])
6 | CN1CCN(CC(=O)N2c3ccccc3C(=O)Nc3cccnc32)CC1 [Y] | 0.269 | 123 | 194 | 1.45 | 0.38 | 5 | no selectivity | 0.63 | 0.832 | 0.5 | 1.26 | –
7 | CN1[C@@H]2CC[C@H]1CC(OC(=O)C(CO)c1ccccc1)C2 (some centres unmarked) [Z] | 0.00813 | – | – | 0.0525 | – | – | – | – | 0.0525 | – | 0.0269 | –
